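Cells were grown in 96-well plates and exposed to each compound for 48 hours at five concentrations; endpoints were interpolated linearly between bracketing concentrations, or set to the highest concentration if not reached. At the GI50, growth is halved.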 The source made the active and inactive calls. No stated cut-off is given here; in the data, active = GI50 up to about 1.1 µM and inactive = higher.
What was measured:
Experiment in all cases: NCI tumour cell line growth inhibition, 48 h
[1] = tested on: A549
[2] = tested on: CCRF-CEM
[3] = tested on: EKVX
[4] = tested on: HCT-15
[5] = tested on: HT-29
[6] = tested on: KM12
[7] = tested on: LOX IMVI
[8] = tested on: M14
[9] = tested on: MDA-MB-435
[10] = tested on: NCI-H226
[11] = tested on: NCI-H23
[12] = tested on: OVCAR-4
[13] = tested on: PC-3
[14] = tested on: SF-295
[15] = tested on: SK-MEL-28
[16] = tested on: SNB-19
[17] = tested on: SW-620
[18] = tested on: TK-10
[19] = tested on: RPMI-8226
[20] = tested on: SR

SMILES	GI50 [1]	GI50 [2]	GI50 [3]	GI50 [4]	GI50 [5]	GI50 [6]	GI50 [7]	GI50 [8]	GI50 [9]	GI50 [10]	GI50 [11]	GI50 [12]	GI50 [13]	GI50 [14]	GI50 [15]	GI50 [16]	GI50 [17]	GI50 [18]	GI50 [19]	GI50 [20]
CCCCOC(=O)C(=O)C(CC(C(=O)Cc1ccccc1)c1ccccc1)C(=O)C=C(C)C (configuration not stated)	> 100 µM (inactive)	76.6 µM (inactive)	> 100 µM (inactive)	> 100 µM	> 100 µM (inactive)	> 100 µM (inactive)	> 100 µM (inactive)	> 100 µM (inactive)	> 100 µM (inactive)	> 100 µM (inactive)	> 100 µM (inactive)	> 100 µM (inactive)	> 100 µM (inactive)	> 100 µM (inactive)	> 100 µM (inactive)	> 100 µM (inactive)	> 100 µM (inactive)	> 100 µM (inactive)		
COc1ccccc1/C=C1/Sc2scc(CC(=O)Nc3ccccc3)[n+]2C1=O	31.5 µM (inactive)	17.7 µM (inactive)	30.9 µM (inactive)	26.6 µM	42 µM (inactive)	19.7 µM (inactive)	39 µM (inactive)	28.4 µM (inactive)	28.4 µM (inactive)	20.3 µM (inactive)	28.6 µM (inactive)	21 µM (inactive)	26 µM (inactive)	32.9 µM (inactive)	22.4 µM (inactive)	29.1 µM (inactive)	35 µM (inactive)	25.2 µM (inactive)		
COc1ccc(NC(=O)C(=O)C(CC2C(=O)NC(=S)NC2=O)C(=O)c2ccc3ccccc3c2)c([N+](=O)[O-])c1 (configuration not stated)	> 100 µM (inactive)	8.99 µM (inactive)	> 100 µM (inactive)	> 100 µM	> 100 µM (inactive)	> 100 µM (inactive)	> 100 µM (inactive)	> 100 µM (inactive)	> 100 µM (inactive)	> 100 µM (inactive)	> 100 µM (inactive)	> 100 µM (inactive)	> 100 µM (inactive)	> 100 µM (inactive)	> 100 µM (inactive)	> 100 µM (inactive)	> 100 µM (inactive)	> 100 µM (inactive)	76.9 µM (inactive)	
C/C=C(\C)C(=O)O[C@@H]1CC(C)(C)CC2C3=CCC4[C@]56CC[C@](O)(OC5)C(C)(C)C6CC[C@@]4(C)C3(C)CC[C@]21C(=O)O (some centres not stated)	53.3 µM (inactive)	> 100 µM (inactive)	> 100 µM (inactive)	83.4 µM	97.1 µM (inactive)	82.4 µM (inactive)	25.9 µM (inactive)	> 100 µM (inactive)	> 100 µM (inactive)	> 100 µM (inactive)	> 100 µM (inactive)	> 100 µM (inactive)	39.3 µM (inactive)	> 100 µM (inactive)	> 100 µM (inactive)	> 100 µM (inactive)	> 100 µM (inactive)	> 100 µM (inactive)	87.9 µM (inactive)	
O=C1/C(=N/c2ccc(Nc3ccccc3)cc2)Oc2ccccc21	3.51 µM (inactive)	1.86 µM (inactive)	5.31 µM (inactive)	3.3 µM	2.2 µM (inactive)	2.14 µM (inactive)	2.34 µM (inactive)	2.33 µM (inactive)	1.82 µM (inactive)	3.31 µM (inactive)	2.04 µM (inactive)	2.33 µM (inactive)	2.81 µM (inactive)	3.35 µM (inactive)	4.19 µM (inactive)	2.36 µM (inactive)	2.36 µM (inactive)	3.84 µM (inactive)		2.15 µM (inactive)
C/C(=N/NC(=S)N(C)C)c1ccccc1O	7.87 µM (inactive)	2.88 µM (inactive)	29.1 µM (inactive)	3.28 µM	3.26 µM (inactive)	8.85 µM (inactive)	4.86 µM (inactive)	7.35 µM (inactive)	21.6 µM (inactive)	> 23.7 µM (inactive)	20.7 µM (inactive)	11.3 µM (inactive)	10.1 µM (inactive)	11.8 µM (inactive)	26.4 µM (inactive)	> 59.8 µM (inactive)	9.4 µM (inactive)	13.3 µM (inactive)	> 31.8 µM (inactive)	
O=C1C(OC(=O)c2ccccc2)=C(c2ccc(O)cc2)C(=O)C(OC(=O)c2ccccc2)=C1c1ccc(O)cc1	> 100 µM (inactive)	42.9 µM (inactive)	> 100 µM (inactive)	> 100 µM	> 100 µM (inactive)	60.5 µM (inactive)	76.4 µM (inactive)	> 100 µM (inactive)	> 100 µM (inactive)	> 100 µM (inactive)	> 100 µM (inactive)	51.9 µM (inactive)	> 100 µM (inactive)	61 µM (inactive)	> 100 µM (inactive)	46 µM (inactive)	> 100 µM (inactive)	> 100 µM (inactive)	> 100 µM (inactive)	
CC1=CC(=O)c2ccccc2C1=O [MENADIONE]	18.5 µM (inactive)	2.03 µM (inactive)	17.2 µM (inactive)	3.42 µM	17.9 µM (inactive)	10.7 µM (inactive)	2.04 µM (inactive)	5.66 µM (inactive)	1.84 µM (inactive)	14.3 µM (inactive)	7.06 µM (inactive)	3.87 µM (inactive)	3.61 µM (inactive)	16.5 µM (inactive)	4.94 µM (inactive)	17.9 µM (inactive)	2.14 µM (inactive)	19.9 µM (inactive)	1.72 µM (inactive)	
Cc1ccc(S(=O)(=O)NNC(=O)Nc2cccc(C(F)(F)F)c2)cc1	> 100 µM (inactive)	96.2 µM (inactive)	> 100 µM (inactive)	89.1 µM	> 100 µM (inactive)	57.3 µM (inactive)		> 100 µM (inactive)	> 100 µM (inactive)	44.7 µM (inactive)	> 100 µM (inactive)	0.0653 µM (active)	36.4 µM (inactive)	> 100 µM (inactive)	> 100 µM (inactive)	> 100 µM (inactive)	> 100 µM (inactive)	> 100 µM (inactive)	> 100 µM (inactive)	> 100 µM (inactive)
O=C(O)/C=C/C(=O)Nc1nc[nH]n1	> 100 µM (inactive)		> 100 µM (inactive)	> 100 µM	> 100 µM (inactive)	> 100 µM (inactive)	> 100 µM (inactive)	> 100 µM (inactive)	> 100 µM (inactive)	> 100 µM (inactive)	> 100 µM (inactive)	> 100 µM (inactive)	> 100 µM (inactive)	> 100 µM (inactive)	> 100 µM (inactive)	> 100 µM (inactive)	> 100 µM (inactive)	> 100 µM (inactive)	> 100 µM (inactive)	
O=C(NCCCCCCNC(=O)c1cccc2ccccc12)Nc1cccc2ccccc12	> 100 µM (inactive)	> 100 µM (inactive)	> 100 µM (inactive)	> 100 µM	> 100 µM (inactive)	> 100 µM (inactive)	> 100 µM (inactive)	> 100 µM (inactive)	> 100 µM (inactive)		> 100 µM (inactive)	> 100 µM (inactive)	> 100 µM (inactive)	> 100 µM (inactive)	> 100 µM (inactive)	> 100 µM (inactive)	> 100 µM (inactive)	> 100 µM (inactive)	> 100 µM (inactive)	
CCCCCCSC[C@H](OC(C)=O)[C@@H](OC(C)=O)[C@@H](OC(C)=O)[C@@H](COC(C)=O)OC(C)=O	71.1 µM (inactive)	43.6 µM (inactive)	> 100 µM (inactive)	62.5 µM	> 100 µM (inactive)	41.9 µM (inactive)	> 100 µM (inactive)	89.7 µM (inactive)	> 100 µM (inactive)	> 100 µM (inactive)	> 100 µM (inactive)	> 100 µM (inactive)	27.7 µM (inactive)	> 100 µM (inactive)	> 100 µM (inactive)	> 100 µM (inactive)	> 100 µM (inactive)	> 100 µM (inactive)	13.3 µM (inactive)	
O=c1o[nH]/c(=N/c2ccccc2)n1-c1ccccc1	> 100 µM (inactive)	> 100 µM (inactive)	> 100 µM (inactive)	> 100 µM	> 100 µM (inactive)	> 100 µM (inactive)	> 100 µM (inactive)	> 100 µM (inactive)		> 100 µM (inactive)	> 100 µM (inactive)	> 100 µM (inactive)	> 100 µM (inactive)	> 100 µM (inactive)	> 100 µM (inactive)	> 100 µM (inactive)	> 100 µM (inactive)	> 100 µM (inactive)		> 100 µM (inactive)
Nc1ccc(-c2nc3ccccc3s2)cc1C(F)(F)F	17.8 µM (inactive)	21.1 µM (inactive)	11 µM (inactive)	13.4 µM	15.5 µM (inactive)	16.1 µM (inactive)	16.4 µM (inactive)	14.9 µM (inactive)	16.5 µM (inactive)		13.5 µM (inactive)		15.7 µM (inactive)	17.4 µM (inactive)	17.3 µM (inactive)	17.4 µM (inactive)	16.4 µM (inactive)	13.1 µM (inactive)	16.5 µM (inactive)	
COc1ccc(Nc2[nH]c(C(C)=O)c(N)c2C(=S)Nc2ccccc2)cc1	41.9 µM (inactive)	> 100 µM (inactive)	99.8 µM (inactive)	35.6 µM	35.3 µM (inactive)	37.5 µM (inactive)	32.1 µM (inactive)	26.8 µM (inactive)	49.4 µM (inactive)	36.1 µM (inactive)	65 µM (inactive)	36.5 µM (inactive)		61.5 µM (inactive)	36.2 µM (inactive)	82.8 µM (inactive)	> 100 µM (inactive)	68.9 µM (inactive)		33.7 µM (inactive)
